This passage reports IC50 results from ChEMBL document CHEMBL3112482, “Nonclassical antifolates, part 5. Benzodiazepine analogs as a new class of DHFR inhibitors: synthesis, antitumor testing and molecular modeling study” (Eur J Med Chem, 2014).

In this assay the target is T1, Dihydrofolate reductase (Bos taurus, UniProt P00376).
T1 sequence (P00376 whole entry): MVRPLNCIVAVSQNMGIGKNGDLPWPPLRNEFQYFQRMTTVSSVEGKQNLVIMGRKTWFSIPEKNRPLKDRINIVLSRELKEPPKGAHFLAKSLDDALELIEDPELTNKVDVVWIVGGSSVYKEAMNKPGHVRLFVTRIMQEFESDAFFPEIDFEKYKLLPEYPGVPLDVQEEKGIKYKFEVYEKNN
Kind of assay: Inhibition of bovine liver DHFR measured for every 1 min of 10 mins.

In general, IC50 refers to the midpoint of a concentration-inhibition curve. A high value points to weaker potency.

For the compound `COc1cc(/C=C2\CCCC3=C(c4cc(OC)c(OC)c(OC)c4)Nc4cc(C)c(C)cc4N=C32)cc(OC)c1OC`, the IC50 came to 1 µM.

Regarding `Clc1ccc(/C=C2\CCCC3=C(c4ccc(Cl)cc4)Nc4cc(Cl)c(Cl)cc4N=C32)cc1`, the IC50 stood at 12 µM.

In turn, `COc1ccc(/C=C2\CCCC3=C(c4ccc(OC)c(OC)c4)Nc4ccccc4N=C32)cc1OC` registered an IC50 of 0.06 µM.
